Data from the supplement of paper PMC10307832.

How the values were obtained:
Assay in all cases: relative viability (nuclei count vs DMSO), 5 days (fraction); higher = more cells survive
A-427 = system: A-427
Outline: (§1)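 Relative viability equals treated-well nuclei counts divided by vehicle-well nuclei counts. Counts came from 4× images of lung cancer cell lines grown in 1536-well plates for 5 days after pin-tool dosing on the day after seeding. Dosing used one drug alone or a fixed anchor-drug dose plus five library-drug doses (not always all listed) in √10 steps, and values are medians of duplicate plates.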

NCI-H1299 = system: NCI-H1299
Outline: as §1

EBC-1 = system: EBC-1
Outline: as §1

HCC-44 = system: HCC-44
Outline: as §1

SW 1573 = system: SW 1573
Outline: as §1

NCI-H2023 = system: NCI-H2023
Outline: as §1

NCI-H1650 = system: NCI-H1650
Outline: as §1

Calu-6 = system: Calu-6
Outline: as §1

NCI-H1703 = system: NCI-H1703
Outline: as §1

RERF-LC-KJ = system: RERF-LC-KJ
Outline: as §1

IA-LM = system: IA-LM
Outline: as §1

NCI-H1993 = system: NCI-H1993
Outline: as §1

A549 = system: A549
Outline: as §1

SMILES: COCC1(CO)C(=O)C2CCN1CC2 (stereo not given) [PRIMA-1MET] + CC(C)C[C@H](NC(=O)[C@H](Cc1ccccc1)NC(=O)c1cnccn1)B(O)O [Bortezomib] (partner 0.002 µM)
- relative viability (A-427; first compound 0.2 µM): 1.09
- relative viability (A-427; first compound 0.6325 µM): 0.881
- relative viability (A-427; first compound 2 µM): 0.901
- relative viability (A-427; first compound 6.325 µM): 0.839
- relative viability (A-427; first compound 20 µM): 0.962
- relative viability (NCI-H1299; first compound 0.2 µM): 1.06
- relative viability (NCI-H1299; first compound 0.6325 µM): 1.02
- relative viability (NCI-H1299; first compound 2 µM): 0.96
- relative viability (NCI-H1299; first compound 6.325 µM): 1.09
- relative viability (NCI-H1299; first compound 20 µM): 0.996
- relative viability (EBC-1; first compound 0.2 µM): 0.581
- relative viability (EBC-1; first compound 0.6325 µM): 0.549
- relative viability (EBC-1; first compound 2 µM): 0.572
- relative viability (EBC-1; first compound 6.325 µM): 0.544
- relative viability (EBC-1; first compound 20 µM): 0.136
- relative viability (HCC-44; first compound 0.2 µM): 0.971
- relative viability (HCC-44; first compound 0.6325 µM): 0.76
- relative viability (HCC-44; first compound 2 µM): 0.927
- relative viability (HCC-44; first compound 6.325 µM): 0.911
- relative viability (HCC-44; first compound 20 µM): 0.877
- relative viability (SW 1573; first compound 0.2 µM): 1.13
- relative viability (SW 1573; first compound 0.6325 µM): 0.802
- relative viability (SW 1573; first compound 2 µM): 1.03
- relative viability (SW 1573; first compound 6.325 µM): 0.421
- relative viability (SW 1573; first compound 20 µM): 0.0222
- relative viability (NCI-H2023; first compound 0.2 µM): 1.17
- relative viability (NCI-H2023; first compound 0.6325 µM): 0.877
- relative viability (NCI-H2023; first compound 2 µM): 0.893
- relative viability (NCI-H2023; first compound 6.325 µM): 0.951
- relative viability (NCI-H2023; first compound 20 µM): 1.02
- relative viability (NCI-H1650; first compound 0.2 µM): 0.207
- relative viability (NCI-H1650; first compound 0.6325 µM): 0.222
- relative viability (NCI-H1650; first compound 2 µM): 0.205
- relative viability (NCI-H1650; first compound 6.325 µM): 0.188
- relative viability (NCI-H1650; first compound 20 µM): 0.197
- relative viability (Calu-6; first compound 0.2 µM): 1.11
- relative viability (Calu-6; first compound 0.6325 µM): 0.95
- relative viability (Calu-6; first compound 2 µM): 1.07
- relative viability (Calu-6; first compound 6.325 µM): 1.02
- relative viability (Calu-6; first compound 20 µM): 0.463
- relative viability (NCI-H1703; first compound 0.2 µM): 0.568
- relative viability (NCI-H1703; first compound 0.6325 µM): 0.369
- relative viability (NCI-H1703; first compound 2 µM): 0.311
- relative viability (NCI-H1703; first compound 6.325 µM): 0.142
- relative viability (NCI-H1703; first compound 20 µM): 0.049
- relative viability (RERF-LC-KJ; first compound 0.2 µM): 1.35
- relative viability (RERF-LC-KJ; first compound 0.6325 µM): 1.04
- relative viability (RERF-LC-KJ; first compound 2 µM): 1.13
- relative viability (RERF-LC-KJ; first compound 6.325 µM): 1.15
- relative viability (RERF-LC-KJ; first compound 20 µM): 1.04
- relative viability (IA-LM; first compound 0.2 µM): 1.02
- relative viability (IA-LM; first compound 0.6325 µM): 0.648
- relative viability (IA-LM; first compound 2 µM): 0.831
- relative viability (IA-LM; first compound 6.325 µM): 0.989
- relative viability (IA-LM; first compound 20 µM): 0.903
- relative viability (NCI-H1993; first compound 0.2 µM): 1.21
- relative viability (NCI-H1993; first compound 0.6325 µM): 1.07
- relative viability (NCI-H1993; first compound 2 µM): 1.94
- relative viability (NCI-H1993; first compound 6.325 µM): 1.02
- relative viability (NCI-H1993; first compound 20 µM): 1.24

SMILES: COCC1(CO)C(=O)C2CCN1CC2 (stereo not given) [PRIMA-1MET] + CS(=O)(=O)CCNCc1ccc(-c2ccc3ncnc(Nc4ccc(OCc5cccc(F)c5)c(Cl)c4)c3c2)o1 [Lapatinib] (partner 2 µM)
- relative viability (A549; first compound 0.2 µM): 1.07
- relative viability (A549; first compound 0.6325 µM): 0.977
- relative viability (A549; first compound 2 µM): 1.05
- relative viability (A549; first compound 6.325 µM): 1.01
- relative viability (A549; first compound 20 µM): 0.943
- relative viability (A-427; first compound 0.2 µM): 1.08
- relative viability (A-427; first compound 0.6325 µM): 0.849
- relative viability (A-427; first compound 2 µM): 0.895
- relative viability (A-427; first compound 6.325 µM): 1.02
- relative viability (A-427; first compound 20 µM): 0.982
- relative viability (NCI-H1299; first compound 0.2 µM): 0.977
- relative viability (NCI-H1299; first compound 0.6325 µM): 0.996
- relative viability (NCI-H1299; first compound 2 µM): 0.969
- relative viability (NCI-H1299; first compound 6.325 µM): 0.99
- relative viability (NCI-H1299; first compound 20 µM): 0.947
- relative viability (EBC-1; first compound 0.2 µM): 0.22
- relative viability (EBC-1; first compound 0.6325 µM): 0.214
- relative viability (EBC-1; first compound 2 µM): 0.203
- relative viability (EBC-1; first compound 6.325 µM): 0.216
- relative viability (EBC-1; first compound 20 µM): 0.201
- relative viability (HCC-44; first compound 0.2 µM): 1.02
- relative viability (HCC-44; first compound 0.6325 µM): 0.775
- relative viability (HCC-44; first compound 2 µM): 0.99
- relative viability (HCC-44; first compound 6.325 µM): 1.01
- relative viability (HCC-44; first compound 20 µM): 0.994
- relative viability (SW 1573; first compound 0.2 µM): 1.26
- relative viability (SW 1573; first compound 0.6325 µM): 1.04
- relative viability (SW 1573; first compound 2 µM): 0.999
- relative viability (SW 1573; first compound 6.325 µM): 0.691
- relative viability (SW 1573; first compound 20 µM): 0.0423
- relative viability (NCI-H2023; first compound 0.2 µM): 0.991
- relative viability (NCI-H2023; first compound 0.6325 µM): 0.26
- relative viability (NCI-H2023; first compound 2 µM): 0.639
- relative viability (NCI-H2023; first compound 6.325 µM): 0.893
- relative viability (NCI-H2023; first compound 20 µM): 0.841
- relative viability (NCI-H1650; first compound 0.2 µM): 0.84
- relative viability (NCI-H1650; first compound 0.6325 µM): 0.378
- relative viability (NCI-H1650; first compound 2 µM): 0.426
- relative viability (NCI-H1650; first compound 6.325 µM): 0.647
- relative viability (NCI-H1650; first compound 20 µM): 0.81
- relative viability (Calu-6; first compound 0.2 µM): 1.14
- relative viability (Calu-6; first compound 0.6325 µM): 1.08
- relative viability (Calu-6; first compound 2 µM): 1.11
- relative viability (Calu-6; first compound 6.325 µM): 1.01
- relative viability (Calu-6; first compound 20 µM): 0.847
- relative viability (NCI-H1703; first compound 0.2 µM): 1.25
- relative viability (NCI-H1703; first compound 0.6325 µM): 0.834
- relative viability (NCI-H1703; first compound 2 µM): 1.01
- relative viability (NCI-H1703; first compound 6.325 µM): 1.04
- relative viability (NCI-H1703; first compound 20 µM): 0.145
- relative viability (RERF-LC-KJ; first compound 0.2 µM): 1.01
- relative viability (RERF-LC-KJ; first compound 0.6325 µM): 0.86
- relative viability (RERF-LC-KJ; first compound 2 µM): 0.874
- relative viability (RERF-LC-KJ; first compound 6.325 µM): 0.928
- relative viability (RERF-LC-KJ; first compound 20 µM): 0.883
- relative viability (IA-LM; first compound 0.2 µM): 0.686
- relative viability (IA-LM; first compound 0.6325 µM): 0.746
- relative viability (IA-LM; first compound 2 µM): 0.724
- relative viability (IA-LM; first compound 6.325 µM): 0.73
- relative viability (IA-LM; first compound 20 µM): 0.637
- relative viability (NCI-H1993; first compound 0.2 µM): 0.776
- relative viability (NCI-H1993; first compound 0.6325 µM): 0.776
- relative viability (NCI-H1993; first compound 2 µM): 0.731
- relative viability (NCI-H1993; first compound 6.325 µM): 0.771
- relative viability (NCI-H1993; first compound 20 µM): 0.759
